Toxic doses and inconclusive results are not listed. Cut-off read from the data, not from the text of the source: active = T/C of 150% or more; inactive = T/C below 125%.
Test system: L1210 leukemia ip in BDF1 mice, survival T/C
Experiment: NCI In Vivo Anticancer Drug Screen. Data for tumor model L1210 Leukemia (intraperitoneal) in B6D2F1 (BDF1) mice
Conditions: endpoint: mean survival time, higher = longer survival
Summary of the method: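 Survival endpoint. Drug-treated group vs vehicle group, expressed as T divided by C. Tumor passaged by transplantation.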

[1] = dose: 25.0 mg/kg/injection, schedule: Q04DX003 (ip), vehicle: saline with Tween-80
[2] = dose: 50.0 mg/kg/injection, schedule: Q04DX003 (ip), vehicle: saline with Tween-80
[3] = dose: 100.0 mg/kg/injection, schedule: Q04DX003 (ip), vehicle: Klucel (hydroxypropylcellulose) (HPC)
[4] = dose: 100.0 mg/kg/injection, schedule: Q04DX003 (ip), vehicle: saline with Tween-80
[5] = dose: 100.0 mg/kg/injection, schedule: Q01DX001 (ip), vehicle: carboxymethylcellulose (CMC)
[6] = dose: 200.0 mg/kg/injection, schedule: Q01DX001 (ip), vehicle: carboxymethylcellulose (CMC)
[7] = dose: 400.0 mg/kg/injection, schedule: Q01DX001 (ip), vehicle: carboxymethylcellulose (CMC)
[8] = dose: 100.0 mg/kg/injection, schedule: Q01DX009 (ip), vehicle: Klucel (hydroxypropylcellulose) (HPC)
[9] = dose: 200.0 mg/kg/injection, schedule: Q01DX009 (ip), vehicle: Klucel (hydroxypropylcellulose) (HPC)
[10] = dose: 400.0 mg/kg/injection, schedule: Q01DX009 (ip), vehicle: Klucel (hydroxypropylcellulose) (HPC)
[11] = dose: 50.0 mg/kg/injection, schedule: Q01DX009 (ip), vehicle: Klucel (hydroxypropylcellulose) (HPC)
[12] = dose: 100.0 mg/kg/injection, schedule: Q04DX002 (ip), vehicle: Klucel (hydroxypropylcellulose) (HPC)
[13] = dose: 200.0 mg/kg/injection, schedule: Q04DX003 (ip), vehicle: saline with Tween-80
[14] = dose: 400.0 mg/kg/injection, schedule: Q04DX003 (ip), vehicle: saline with Tween-80
[15] = dose: 100.0 mg/kg/injection, schedule: Q01DX009 (ip), vehicle: saline with Tween-80
[16] = dose: 200.0 mg/kg/injection, schedule: Q01DX009 (ip), vehicle: saline with Tween-80
[17] = dose: 400.0 mg/kg/injection, schedule: Q01DX009 (ip), vehicle: saline with Tween-80

Measured: T/C

NC(=O)c1ccc([N+](=O)[O-])s1
inactive: [1] 98 % of control | [2] 104 % of control | [3] 100 % of control | [4] 96 % of control

CCCNC(C)C(=O)c1ccccc1 (stereo not given)
inactive: dose: 12.5 mg/kg/injection, schedule: Q01DX009 (ip), vehicle: saline 93 % of control | dose: 25.0 mg/kg/injection, schedule: Q01DX009 (ip), vehicle: saline 97 % of control | dose: 50.0 mg/kg/injection, schedule: Q01DX009 (ip), vehicle: saline 108 % of control | dose: 100.0 mg/kg/injection, schedule: Q01DX009 (ip), vehicle: saline 86 % of control

CC(C)CC1C(C(C)C)C=NN1C (stereo not given)
inactive: dose: 50.0 mg/kg/injection, schedule: Q01DX001 (ip), vehicle: carboxymethylcellulose (CMC) 100 % of control | [5] 86 % of control | [6] 100 % of control | [7] 94 % of control

c1cc[c]([Sn]([CH2]Cc2ccncc2)([c]2ccccc2)[c]2ccccc2)cc1
inactive: dose: 100.0 mg/kg/injection, schedule: Q04DX002 (sc), vehicle: olive oil, sesame oil, peanut oil 110 % of control | dose: 200.0 mg/kg/injection, schedule: Q04DX002 (sc), vehicle: olive oil, sesame oil, peanut oil 100 % of control | dose: 400.0 mg/kg/injection, schedule: Q04DX002 (sc), vehicle: olive oil, sesame oil, peanut oil 103 % of control

CC1C/C=C2\CSC(NC(=O)/C3=C\N(C/C=C/C=C/C(O)CC(O)CC(=O)N3)C2=O)C(=O)O1 (stereo not given)
inactive: dose: 10.6 mg/kg/injection, schedule: Q01DX Z (ip), vehicle: saline 100 % of control | dose: 16.0 mg/kg/injection, schedule: Q01DX Z (ip), vehicle: saline 106 % of control | dose: 24.0 mg/kg/injection, schedule: Q01DX Z (ip), vehicle: saline 106 % of control | dose: 36.0 mg/kg/injection, schedule: Q01DX Z (ip), vehicle: saline 103 % of control | [5] 110 % of control | [6] 94 % of control | [7] 97 % of control

CC1(C)CC(OP(=O)(N2CC2)N2CC2)CC(C)(C)N1O
inactive: dose: 50.0 mg/kg/injection, schedule: Q01DX001 (ip), vehicle: water 102 % of control | dose: 100.0 mg/kg/injection, schedule: Q01DX001 (ip), vehicle: water 98 % of control | dose: 200.0 mg/kg/injection, schedule: Q01DX001 (ip), vehicle: water 102 % of control

O=C(O)c1c(Br)c(Br)c(Br)c(Br)c1C(=O)Nc1cc([N+](=O)[O-])ccc1O
inactive: [8] 106 % of control | [9] 122 % of control | [10] 101 % of control

OC1c2ccccc2-c2ccccc21
inactive: dose: 100.0 mg/kg/injection, schedule: Q04DX003 (ip), vehicle: saline 91 % of control | dose: 200.0 mg/kg/injection, schedule: Q04DX003 (ip), vehicle: saline 93 % of control | dose: 400.0 mg/kg/injection, schedule: Q04DX003 (ip), vehicle: saline 93 % of control

C=C1CC[N+]2(CCCC)CCCC12 (stereo not given)
inactive: dose: 12.5 mg/kg/injection, schedule: Q01DX009 (ip), vehicle: Klucel (hydroxypropylcellulose) (HPC) 103 % of control | dose: 25.0 mg/kg/injection, schedule: Q01DX009 (ip), vehicle: Klucel (hydroxypropylcellulose) (HPC) 97 % of control | [11] 95 % of control

CCCCN(CCCC)CCNCC(Cc1ccccc1)c1ccccc1 (stereo not given)
inactive: [12] 93 % of control

CCOC(=O)c1ccc(N=CNc2ccc(C(=O)OCC)cc2)cc1
inactive: dose: 12.5 mg/kg/injection, schedule: Q01DX001 (ip), vehicle: other 106 % of control | dose: 12.5 mg/kg/injection, schedule: Q01DX009 (ip), vehicle: saline with Tween-80 100 % of control | dose: 12.5 mg/kg/injection, schedule: Q04DX003 (ip), vehicle: saline with Tween-80 96 % of control | dose: 25.0 mg/kg/injection, schedule: Q01DX001 (ip), vehicle: other 95 % of control | dose: 25.0 mg/kg/injection, schedule: Q01DX009 (ip), vehicle: saline with Tween-80 93 % of control | [1] 95 % of control | dose: 50.0 mg/kg/injection, schedule: Q01DX001 (ip), vehicle: other 93 % of control | dose: 50.0 mg/kg/injection, schedule: Q01DX009 (ip), vehicle: saline with Tween-80 96 % of control | [2] 95 % of control

COc1ccc(NC(=O)Oc2ccc(Cl)c(C)c2)cc1
inactive: [4] 93 % of control | [13] 90 % of control | [14] 88 % of control

OC1(c2cccc(C(F)(F)F)c2)CCN(C2CC2)CC1
inactive: dose: 12.5 mg/kg/injection, schedule: Q04DX003 (ip), vehicle: Klucel (hydroxypropylcellulose) (HPC) 104 % of control | dose: 25.0 mg/kg/injection, schedule: Q04DX003 (ip), vehicle: Klucel (hydroxypropylcellulose) (HPC) 105 % of control | dose: 50.0 mg/kg/injection, schedule: Q04DX003 (ip), vehicle: Klucel (hydroxypropylcellulose) (HPC) 100 % of control

CN(C)CCP(=O)(O)O
inactive: [15] 96 % of control | [16] 95 % of control | [17] 91 % of control

C=CCc1cc(Nc2c3ccc(Cl)cc3nc3ccc(OC)cc23)cc(CN(CC)CC)c1O
inactive: dose: 50.0 mg/kg/injection, schedule: Q04DX002 (ip), vehicle: saline 106 % of control | dose: 100.0 mg/kg/injection, schedule: Q04DX002 (ip), vehicle: saline 98 % of control | dose: 200.0 mg/kg/injection, schedule: Q04DX002 (ip), vehicle: saline 98 % of control

COc1ccc(Cl)cc1NC(=O)Nc1cc(C)ccc1Cl
inactive: [8] 101 % of control | [3] 90 % of control | [9] 110 % of control | dose: 200.0 mg/kg/injection, schedule: Q04DX003 (ip), vehicle: Klucel (hydroxypropylcellulose) (HPC) 95 % of control | [10] 116 % of control | dose: 400.0 mg/kg/injection, schedule: Q04DX003 (ip), vehicle: Klucel (hydroxypropylcellulose) (HPC) 95 % of control

O=C(Nc1ccccc1)Nc1cc(Cl)ccc1Cl
inactive: dose: 25.0 mg/kg/injection, schedule: Q04DX002 (ip), vehicle: Klucel (hydroxypropylcellulose) (HPC) 107 % of control | dose: 50.0 mg/kg/injection, schedule: Q04DX002 (ip), vehicle: Klucel (hydroxypropylcellulose) (HPC) 90 % of control | [12] 90 % of control

COc1cc(C(=O)O)c(Cc2ccccc2)c(OC)c1O
inactive: dose: 5.0 mg/kg/injection, schedule: Q01DX001 (ip), vehicle: saline 95 % of control | dose: 10.0 mg/kg/injection, schedule: Q01DX001 (ip), vehicle: saline 97 % of control | dose: 20.0 mg/kg/injection, schedule: Q01DX001 (ip), vehicle: saline 95 % of control | dose: 40.0 mg/kg/injection, schedule: Q01DX001 (ip), vehicle: saline 95 % of control | dose: 80.0 mg/kg/injection, schedule: Q01DX001 (ip), vehicle: saline 95 % of control

C[N+](C)(C)c1ccc(NC(=O)c2ccc(C(=O)Nc3ccc([N+](C)(C)C)cc3)cc2)cc1
inactive: dose: 0.5 mg/kg/injection, schedule: Q01DX Z (ip), vehicle: saline 93 % of control | dose: 1.0 mg/kg/injection, schedule: Q01DX Z (ip), vehicle: saline 102 % of control | dose: 2.0 mg/kg/injection, schedule: Q01DX Z (ip), vehicle: saline 97 % of control

COc1nc(=O)n(C2CCCO2)cc1Br (stereo not given)
inactive: dose: 100.0 mg/kg/injection, schedule: Q01DX001 (ip), vehicle: other 107 % of control | dose: 200.0 mg/kg/injection, schedule: Q01DX001 (ip), vehicle: other 96 % of control | dose: 400.0 mg/kg/injection, schedule: Q01DX001 (ip), vehicle: other 98 % of control

CC(=O)NS(=O)(=O)c1ccc(N)cc1
inactive: [15] 94 % of control | [4] 98 % of control | [16] 94 % of control | [13] 98 % of control | [17] 95 % of control | [14] 100 % of control

c1ccc(-c2ccc(C3=NC(c4ccccc4)CC3)[nH]2)cc1 (stereo not given)
inactive: [11] 90 % of control | [8] 90 % of control | [9] 86 % of control

— PubChem BioAssay AID248 (DTP/NCI, 2004)
